# Data from patent US9738684B2, “N-terminally modified linear and branched polyamine conjugated peptidomimetics as antimicrobials agents” (COUNCIL OF SCIENTIFIC & INDUSTRIAL RESEARCH, priority 2015, dated 2017).
# Where “and” joins values, the source holds several entries; their conditions need not be identical. Identical values can stand only once.
# Tests used:
# [1] = tested on: Escherichia coli (ATCC 11775); assay: MIC, serial broth dilution; assay type: cell-based; parameters: MIC E. coli. (ATCC 11775): unit not given here; details: MHB, 18 h, 37° C.
# Protocol: The peptidomimetics designed in present invention were evaluated as antibacterial therapeutics against a broad range of bacterial strains by broth microdilution method. The antibacterial activity of the peptidomimetics was reported in terms of the minimum inhibitory concentrations (MIC).
# Following bacterial strains were used in this study: S. aureus (ATCC 29213), methicillin resistant S. aureus (ATCC 33591), Staphylococcus epidermidis (ATCC 12228), methicillin resistant Staphylococcus epidermidis(ATCC 51625), Enterococcus faecalis (ATCC 7080), Escherichia coli (ATCC 11775), and Acinetobacter baumannii (ATCC 19606). Antibacterial activity was evaluated using a modified serial broth dilution method in accordance with Clinical Laboratory Standard Institute guidelines [Methods for dilution antimicrobial susceptibility tests for bacteria that grow aerobically-7th ed. Approved standard M7-A7. Clinical and Laboratory Standards Institute, Wayne, Pa., Biochim. Biophys. Acta 1798:1864-1875, 2010.]. Briefly, the inoculums were prepared from mid-log phase bacterial cultures. Peptidomimetics were incubated with bacterial suspension in Muller Hinton broth media (10^5 CFU/mL) in 96 well microtitre plate. The plates were incubated overnight with agitation (200 rpm) at 37° C. After 18 h, absorbance was measured at 630 nm. Cultures without test peptidomimetics were used as positive control. Un-inoculated Mueller Hinton Broth (MHB) was used as negative control. Tests were carried out in duplicate on at least three different days. […] For comparison standard peptide antibiotics vancomycin (VAN) and polymyxin B (PMB) were also assayed under identical conditions (Table 2). […] Further, antibacterial activity of active peptidomimetics 1c and 1d were also evaluated against MRSA in presence of 25% v/v human serum as well as bovine serum.
# [2] = tested on: peripheral blood mononuclear cells (PBMCs); assay: LDH release cytotoxicity assay; assay type: cell-based, human; details: 20 μg/mL, 24 h
# Protocol: For the experiment a protocol as used previously was employed with minor modifications [J. Immunol. Methods, 115:61-69, 1988; Chem. Biol. 20:1286-1295, 2013.]. Briefly, blood was collected from healthy human donors in sodium heparin anticoagulant tubes in accordance with institutional guidelines. The blood was diluted 1:1 with NaCl/Pi (35 mM phosphate buffer, 150 mM NaCl, pH 7.2). Blood cells were separated over histopaque (Sigma-aldrich) by centrifugation for 30 min at 1200 rpm. The PBMCs were collected and washed twice with NaCl/Pi (35 mM phosphate buffer, 150 mM NaCl, pH 7.2). The cells were then re-suspended in complete RPMI 1640 medium (Himedia) supplemented with 10% FBS (Sigma) and quantified by trypan blue exclusion on microscope. PBMCs (1×10^6 cells/mL) in complete media were seeded into a 24-well plate and left in the incubator for 2 h at 37° C. in 5% CO2. The cells were then treated with 1c, 1d and VAN at desired concentrations (20 μg/mL). 2% Triton X-100 was used as a […] control. After 24 h of incubation, the content of each well was transferred to sterile 1.5 mL eppendorf tube and cells were pelleted at 2000 rpm for 10 min. The supernatant was assessed for the release of LDH by using the TOX7 kit (Sigma). […]
# MRSA = assay: Membrane depolarization with DiSC3(5) dye; assay type: cell-based, Staphylococcus aureus; details: up to the highest concentration tested
# Protocol: For determination of membrane depolarizing ability of designed peptidomimetics, a membrane potential sensitive dye DiSC3(5) was used as described previously with minor modifications [Org Biomol. Chem. 10: 8326-8335, 2012; J. Am. Chem. Soc., 132: 18417-18428, 2010.]. Briefly, overnight grown MRSA was sub cultured into MHB for 2-3 h at 37° C. to obtain mid-log phase cultures. The cells were centrifuged at 4000 rpm for 10 min at 25° C., washed, and re-suspended into respiration buffer (5 mM HEPES, 20 mM glucose, pH 7.4) to obtain a diluted suspension of OD600˜0.05. Then DiSC3(5) [0.18 μM in DMSO], was added to 500 μL aliquotes of the re-suspended cells and allowed to stabilize for 1 h. Baseline fluorescence was acquired using a Edinburg F900 spectrofluorometer by excitation at 622 nm and emission at 670 nm in a 1 cm path length cuvette. Bandwidth of 5 nm was employed for excitation and emission. Subsequently, increasing concentrations of test peptidomimetics were added to the stabilized cells and the increase of fluorescence on account of the de-quenching of DiSC3(5) dye was measured after every 2 min to obtain the maximal depolarization. Increase in relative fluorescence unit (RFU) was plotted against increasing concentrations of different peptidomimetics or PMB. […] The increase in fluorescence for lipid tagged peptidomimetics was concentration dependent up to 9.9 μg/mL and henceforth, got saturated resulting into plateau like dose response curves. The experiment was repeated twice on two consecutive days and produced similar results.
# [3] = tested on: MRSA (ATCC 33591) biofilm; assay: Confocal laser scanning microscopy of biofilm, thickness by z-stacking; assay type: cell-based, Staphylococcus aureus; details: for thickness of mature biofilm after treatment: 10×MICb, untreated 23.6±2.5 μm; for thickness of mature biofilm after treatment / confocal observation of mature biofilm: 24 h preformed biofilm; for confocal observation of mature biofilm: 20×MICb; for average thickness of biofilm, biofilm formation: MICb; for average thickness of biofilm, biofilm formation / thickness of biofilm, biofilm formation: control 14.3±1.4 μm; for thickness of biofilm, biofilm formation: sub-MICb
# From the text: For visualization of biofilm and validation of AB and CV assay we performed confocal microscopy. For this biofilm formation was induced on glass cover slips in a 6-well plate. The biofilm on cover slips were washed twice with sterile NaCl/Pi buffer and stained with a Live/Dead kit reagent (Invitrogen, Molecular Probes, Eugene, Oreg., USA) following the manufacturer's instructions. This stain contains DNA binding dyes SYTO 9 (green fluorescent) and propidium iodide (PI; red fluorescent). When used alone, SYTO 9 stains all bacteria in a population, those with intact as well as damaged membranes. In contrast, PI penetrates only bacteria with damaged membranes, causing a reduction in the SYTO 9 stain (green fluorescence). The biofilms were examined with an Olympus flow view FV1000 (confocal laser scanning microscope, CLSM). The experiment was repeated three times on three different days and representative data is presented here.
# We next measured the thickness of biofilm using z-stacking in confocal microscopy. […] At MICb, 1c and 1d prevented formation of biofilm in which very few cells were adhered to substratum with observed average thickness of 3.9±1.1 μm and 3.5±0.6 μm, respectively. Furthermore, at sub-MICb concentration the observed thicknesses were 5.2±0.3 μm and 5.8±0.4 μm (FIG. 7A.b and FIG. 7A.d).
SMILES,MIC E. coli. (ATCC 11775) [1],% LDH release against peripheral blood mononuclear cells [2],"change in relative fluorescence unit (RFU), membrane depolarization (MRSA)",thickness of mature biofilm after treatment [3] [μm],confocal observation of mature biofilm [3],"average thickness of biofilm, biofilm formation [3] [μm]","thickness of biofilm, biofilm formation [3] [μm]"
CCCCCCCCCC(=O)NC(Cc1c[nH]c2ccccc12)C(=O)NC(Cc1c[nH]c2ccccc12)C(=O)NCCCNCCCCNCCCN (centres unmarked) [1d],14.2,17.56±10.15% and 17.5%,intermediate changes in fluorescence intensity,7.0±1.0,most of the cells lost their integrity,3.5±0.6,5.8±0.4
NCCCNCCCCNCCCNC(=O)C(Cc1c[nH]c2ccccc12)NC(=O)C(Cc1c[nH]c2ccccc12)NC(=O)Cc1ccc(C(F)(F)F)cc1 (centres unmarked) [1c],56.8,5.78±6.58% and 5.78%,only marginal changes in RFU,7.1±1.5,most of the cells lost their integrity,3.9±1.1,5.2±0.3
